Measured values reported in patent US7696246B2 (Ligand Pharmaceuticals Incorporated, priority 1999, dated 2010).
pEC50, pIC50, pKi: −log10 of the molar value. Read-outs that look alike come from different tables or passages of the source.

Tests used:
human AR [1] = target: T1, human AR (Homo sapiens, UniProt P10275); assay: Co-transfection assay, AR agonist activity (CV-1 cells, MTV-LUC reporter); format: cell-based; conditions: CV-1 cells; for pEC50: agonist potency EC50; for AR Agonist CV-1 Cells Efficacy (%): percent maximal response relative to reference agonist DHT
T1 sequence (P10275 1-920): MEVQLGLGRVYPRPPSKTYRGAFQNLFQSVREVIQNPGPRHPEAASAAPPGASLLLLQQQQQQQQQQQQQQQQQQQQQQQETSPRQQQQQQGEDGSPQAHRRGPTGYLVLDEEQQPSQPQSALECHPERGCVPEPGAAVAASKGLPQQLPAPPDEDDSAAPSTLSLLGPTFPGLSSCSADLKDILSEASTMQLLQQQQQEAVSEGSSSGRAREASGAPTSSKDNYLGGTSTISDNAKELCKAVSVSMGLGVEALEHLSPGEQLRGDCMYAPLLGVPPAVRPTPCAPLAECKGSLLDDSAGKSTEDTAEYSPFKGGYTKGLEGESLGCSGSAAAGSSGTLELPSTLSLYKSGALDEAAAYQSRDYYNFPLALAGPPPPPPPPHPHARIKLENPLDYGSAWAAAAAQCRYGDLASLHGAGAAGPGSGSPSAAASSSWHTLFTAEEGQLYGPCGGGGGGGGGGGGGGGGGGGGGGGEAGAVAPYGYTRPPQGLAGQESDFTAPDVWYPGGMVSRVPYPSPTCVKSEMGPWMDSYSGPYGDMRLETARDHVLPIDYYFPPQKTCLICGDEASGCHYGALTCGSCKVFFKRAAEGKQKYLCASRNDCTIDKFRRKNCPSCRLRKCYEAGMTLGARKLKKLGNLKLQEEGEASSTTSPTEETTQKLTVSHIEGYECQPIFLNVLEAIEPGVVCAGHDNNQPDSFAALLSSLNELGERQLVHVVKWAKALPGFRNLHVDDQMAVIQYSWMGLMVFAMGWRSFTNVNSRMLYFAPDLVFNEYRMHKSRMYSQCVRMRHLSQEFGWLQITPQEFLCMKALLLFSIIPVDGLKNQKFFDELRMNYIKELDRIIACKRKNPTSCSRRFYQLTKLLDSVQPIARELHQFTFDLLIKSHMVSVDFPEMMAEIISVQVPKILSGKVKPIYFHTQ

human AR [2] = target: T1, human AR; assay: Co-transfection assay, AR antagonist activity (CV-1 cells, in presence of DHT); format: cell-based; conditions: for AR Antagonist CV-1 Cells Efficacy (%): percent maximal inhibition, DHT at its EC50
human AR [3] = target: T1, human AR; assay: AR whole cell competitive binding assay (COS-1 cells, 3H-DHT); conditions: 1 nM 3H-DHT, Cheng-Prusoff
[4] = read-out: AR Antagonist CV-1 Cells Potency

Structure (SMILES)	pEC50 (human AR [1])	AR Agonist CV-1 Cells Efficacy (%) (human AR [1])	AR Antagonist CV-1 Cells Efficacy (%) (human AR [2])	pIC50 (human AR [2]; [4])	pKi (human AR [3])	pIC50 (human AR [2])
C=CC1CCCCN1c1ccc2[nH]c(=O)cc(C(F)(F)F)c2c1 (racemic) [Compound 444, (±)-6-(2-Vinyl-1-piperidino)-4-trifluoromethyl-2(1H)-quinolinone]	7.14	83	na (na = not active (i.e. efficacy of <20 and potency of >10,000))	< 5.00	7.59	–
O=c1cc(C(F)(F)F)c2cc(N3CCCCC3CCOCc3ccccc3)ccc2[nH]1 (racemic) [Compound 445, (±)-6-(2-Benzyloxyethyl-1-piperidino)-4-trifluoromethyl-2(1H)-quinolinone]	7.59	104	na (na = not active (i.e. efficacy of <20 and potency of >10,000))	–	8.24	< 5.00
O=c1cc(C(F)(F)F)c2cc(N3CCCCC3CCOCc3ccc(C(F)(F)F)cc3)ccc2[nH]1 (racemic) [Compound 449, (±)-6-(2-(4-Trifluoromethyl)benzyloxyethyl-1-piperidino)-4-trifluoromethyl-2(1H)-quinolinone]	7.80	83	na (na = not active (i.e. efficacy of <20 and potency of >10,000))	< 5.00	8.08	–
CCCCC1(O)C=C(c2ccc3c(c2)C(C)(C)OC(=O)N3)CCC1 (racemic) [Compound 694, (±)-6-(3-Butyl-3-hydroxy-1-)cyclohexenyl-1,4-dihydro-4,4-dimethyl-1,3-benzo[d]oxazin-2-one]	6.03	25	90%	7.19	< 6.00	–
CC1OC(=O)Nc2ccc(C3=CCCCC3)cc21 (racemic) [Compound 698, (±)-6-(1-Cyclohexenyl)-1,4-dihydro-4-methyl-1,3-benzo[d]oxazin-2-one]	< 5.00	–	84%	7.77	7.49	–
CC(C)CN(CC(C)C)c1ccc2[nH]c(=O)cc(C(F)(F)F)c2c1 [Compound 221, 6-Diisobutylamino-4-trifluoromethyl-2(1H)-quinolinone]	7.64	114	na (na = not active (i.e. efficacy of <20 and potency of >10,000))	< 5.00	6.83	–
O=c1cc(C(F)(F)F)c2cc(N(CC(F)(F)C(F)(F)F)CC(F)(F)C(F)(F)F)ccc2[nH]1 [Compound 224, 6-(bis-2,2,3,3,3-Pentafluoropropyl)amino-4-trifluoromethyl-2(1H)-quinolinone]	7.39	108	na (na = not active (i.e. efficacy of <20 and potency of >10,000))	< 5.00	6.69	–
O=c1cc(C(F)(F)F)c2cc(N(CC(F)(F)Cl)CC(F)(F)Cl)ccc2[nH]1 [Compound 225, 6-(bis-2-Chloro-2,2-difluoroethyl)amino-4-trifluoromethyl-2(1H)-quinolinone]	9.40	90	na (na = not active (i.e. efficacy of <20 and potency of >10,000))	< 5.00	9.05	–
O=c1cc(C(F)(F)F)c2cc(NCC(Cl)(Cl)Cl)ccc2[nH]1 [Compound 227, 6-(N-2,2,2-Trichloroethyl)amino-4-trifluoromethyl-2(1H)-quinolinone]	< 5.00	–	73%	7.85	7.42	–
O=c1cc(C(F)(F)F)c2cc(N(CC(Cl)Cl)CC(Cl)Cl)ccc2[nH]1 [Compound 232, 6-(bis-N-2,2-Dichloroethyl)amino-4-trifluoromethyl-2(1H)-quinolinone]	8.47	55	na (na = not active (i.e. efficacy of <20 and potency of >10,000))	< 5.00	8.12	–
CCCN(CC)c1ccc2[nH]c(=O)cc(C(F)(F)F)c2c1 [Compound 238, 6-(N-Ethyl-N-propyl)amino-4-trifluoromethyl-2(1H)-quinolinone]	8.28	77	na (na = not active (i.e. efficacy of <20 and potency of >10,000))	< 5.00	7.77	–
CCN(CC(C)C)c1ccc2[nH]c(=O)cc(C(F)(F)F)c2c1 [Compound 241, 6-(N-Ethyl-N-isobutyl)amino-4-trifluoromethyl-2(1H)-quinolinone]	8.54	73	na (na = not active (i.e. efficacy of <20 and potency of >10,000))	< 5.00	7.52	–
CCCN(CC1CC1)c1ccc2[nH]c(=O)cc(C(F)(F)F)c2c1 [Compound 254, 6-(N-Propyl-N-cyclopropylmethyl)amino-4-trifluoromethyl-2(1H)-quinolinone]	9.05	78	na (na = not active (i.e. efficacy of <20 and potency of >10,000))	< 5.00	7.92	–
CC(C)CN(CC(F)(F)F)c1ccc2[nH]c(=O)cc(C(F)(F)F)c2c1 [Compound 259, 6-(N-2,2,2-trifluoroethyl-N-isobutyl)amino-4-trifluoromethyl-2(1H)-quinolinone]	8.72	97	na (na = not active (i.e. efficacy of <20 and potency of >10,000))	< 5.00	8.20	–
O=c1cc(C(F)(F)F)c2cc(N(Cc3ccccc3)Cc3ccccc3)ccc2[nH]1 [Compound 272, 6-(bis-N,N-Benzyl)amino-4-trifluoromethyl-2(1H)-quinolinone]	< 5.00	–	67%	8.15	< 6.00	–
C=CCN(CC=C)c1ccc2[nH]c(=O)cc(C(F)(F)F)c2c1 [Compound 280, 6-Diallylamino-4-trifluoromethyl-2(1H)-quinolinone]	8.66	78	na (na = not active (i.e. efficacy of <20 and potency of >10,000))	< 5.00	8.62	–
C=CCN(CC1CC1)c1ccc2[nH]c(=O)cc(C(F)(F)F)c2c1 [Compound 285, 6-(N-Allyl-N-cyclopropylmethyl)amino-4-trifluoromethyl-2(1H)-quinolinone]	9.00	111	na (na = not active (i.e. efficacy of <20 and potency of >10,000))	< 5.00	8.21	–
CS(=O)(=O)N(CC(F)(F)F)c1ccc2[nH]c(=O)cc(C(F)(F)F)c2c1 [Compound 295, 6-(N-2,2,2-Trifluoroethyl-N-methylsufonyl)amino-4-trifluoromethyl-2(1H)-quinolinone]	7.30	30	49%	8.44	7.07	–
Cn1c(=O)cc(C(F)(F)F)c2cc(N(CC(F)(F)F)CC(F)(F)F)ccc21 [Compound 297, 1-Methyl-6-(bis-2,2,2-trifluoroethyl)amino-4-trifluoromethyl-2(1H)-quinolinone]	7.66	43	43%	8.49	7.24	–
CC(C)(C)Nc1ccc2[nH]c(=O)cc(C(F)(F)F)c2c1 [Compound 307, 6-tert-Butylamino-4-trifluoromethyl-2(1H)-quinolinone]	< 5.00	–	43%	8.49	7.21	–
O=c1cc(C(F)(F)F)c2cc(N3CCCCC3)ccc2[nH]1 [Compound 311, 6-(1-Piperidinyl)-4-trifluoromethyl-2(1H)-quinolinone]	6.84	42	38%	7.89	7.92	–
C[C@@H]1CC[C@H](C)N1c1ccc2[nH]c(=O)cc(C(F)(F)F)c2c1 [Compound 328, 6-(2,5-cis-Dimethyl-1-pyrrolidino)-4-trifluoromethyl-2(1H)-quinolinone]	8.77	93	na (na = not active (i.e. efficacy of <20 and potency of >10,000))	< 5.00	7.32	–
